Data from US20070059720A9 (priority 2004, published 2007).

Legend:
ERα [1] = experiment: Immunoblot of ERα in T47D vector and MTA2 clones; format: cell-based, human
EBP50 = experiment: Immunoblot of EBP50 in T47D vector and MTA2 clones; format: cell-based, human
PR-B = experiment: PR ubiquitin assay; format: cell-based, human; conditions: 2 hrs in the presence of a proteasomal inhibitor
Description: Cells were staved in PRF MEM for 24 hours, and then 2×10^6 cells were seeded into 100 mm tissue culture plates, and incubated for another 24 hours. Cells were transiently transfected with Fugene 6 reagent (Roche, Indianapolis, Ind.) following the manufacturer's protocol. Each plate was transfected with 1 μg pcDNA 3.1-PR-B (subcloned by BamHI digestion from pSG5-human PR-B clone (Richer et al., 1998) obtained from Dr. Kathryn Horwitz, University of Colorado Health Sciences Center, 1 μg MKP3-V5, and 3 μg pcDNA-HAUbiquitin (kindly provided by Dr. Xinhua Feng, Baylor College of Medicine). Twenty-four hours later, cells were switched to serum free, PRF MEM, incubated for another 24 hours. In some experiments were pretreated with the 50 μM MG-132 (Calbiochem, LaJolla, Calif.) for 2 hours, and then treated with vehicle (ethanol), estradiol (E2, 100 nM), or 4-OH-Tam (100 nM) for an additional 2 hours. Cells were then harvested in 1 ml cell lysis buffer supplemented with 50 μM MG-132. Cell lysates from each treatment were precleared with the addition of 50 μl 50% protein A slurry (Amersham), and immunoprecipitated with the addition of anti-PR antibodies C-19 and H190 (2 μg each), and 20 μl 50% protein A slurry. […]

ERα [2] = experiment: Transient transactivation assay with ERE-luciferase reporter; format: cell-based; conditions: U20S cells with exogenous ER or MCF-7 cells with endogenous ER; EBP50 expression
Text: Transient transactivation assays with an ERE-luciferase reporter were utilized in U20S cells expressing exogenous ER (Panel A), or MCF-7 cells expressing endogenous ER (Panel B). ER activity was enhanced with EBP50 expression in the presence of estrogen.

ER-positive tumors = conditions: cited from earlier work
cyclin D1 (CCND1) = experiment: Immunoblot of CCND1 in MCF-7 transfectants; format: cell-based, human; conditions: MKP3 overexpressing cells; 2 hours
Description: Cells grown in 100 mm dishes were starved in phenol red-free (PRF), serum-free MEM (Specialty Media, Phillipsburg, N.J.) for 48 hours, and were then treated for 2 hours with vehicle (ethanol), estrogen (100 nM, 20), or OHT (100 nM). After treatment, cells were rinsed twice with ice-cold phosphate-buffered saline (PBS) and were then lysed immediately with 200 μl of cell lysis buffer (20 mM Tris HCl, pH 7.4, 150 mM NaCl, 1 mM B-glycerophosphate, 1 mM sodium orthovanadate, and 10% glycerol plus 1:100 proteinase inhibitor cocktail III) (Calbiochem, LaJolla, Calif.) per 100 mm tissue culture. The cell lysates were cleared by centrifugation at 16,100×g for 10 minutes at 4° C. Protein concentration was determined with the BCA Protein Assay kit (Pierce, Rockfold, Ill.) according to the manufacturer's directions. Equal amount of cell extracts were resolved under denaturing conditions by electrophoresis in 8-10% polyacrylamide gels containing sodium dodecyl sulfate (SDS-PAGE), and transferred to nitrocellulose membranes by electroblotting (Schleicher & Schuell, Keene, NH). […]
As expected with two hours of estrogen treatment, no induction of the two PR isoforms were detected in either the control vector (Con 1 and 2), or in the MKP3-transfected cells (FIG. 11A). […]

[3] = adjuvant therapy, patients with ER-positive tumors

Structure (SMILES)	ERα protein levels (ERα [1])	EBP50 levels (EBP50)	level of polyubiquitin-conjugated PR-B (PR-B)	effect on ER activity (ERE-luciferase) (ERα [2])	10-year recurrence risk (ER-positive tumors; [3])	reduction of the risk of death from metastatic disease (ER-positive tumors; [3])	share of patients with ER-positive disease who respond (ER-positive tumors; human, in vivo)	CCND1 levels (cyclin D1 (CCND1))
C[C@]12CC[C@@H]3c4ccc(O)cc4CC[C@H]3[C@@H]1CC[C@@H]2O [E2, 17β-Estradiol]	decreased	increased						
CC/C(=C(\c1ccccc1)c1ccc(OCCN(C)C)cc1)c1ccccc1 [Tam, tamoxifen]			increased	antagonist and reversed estrogen's effects	halves	26%	60%	High levels
